# Reference: patent publication US20090202698A1, “OLIGOPEPTIDES FOR USE AS TASTE MODULATORS” (Nutrinova Nutrition Specialties & Food Ingredients GmbH, priority 2008, published 2009)
# Molecular target: T1, human T1R2/T1R3 taste receptor (Homo sapiens, UniProt Q7RTX0+Q8TE23)
# T1 construct: the cDNA for the receptors ht1R2 and ht1R3 and the cDNA for the blasticidin S deaminase gene have been cloned; expressed in transfected cells; host or cells: HEK293 stably expressing mouse G-alpha-15, stably transfected with the tricistronic vector pTrix-Eb-R2R3 (blasticidin selection)
# T1 sequence (Q8TE23 20-839): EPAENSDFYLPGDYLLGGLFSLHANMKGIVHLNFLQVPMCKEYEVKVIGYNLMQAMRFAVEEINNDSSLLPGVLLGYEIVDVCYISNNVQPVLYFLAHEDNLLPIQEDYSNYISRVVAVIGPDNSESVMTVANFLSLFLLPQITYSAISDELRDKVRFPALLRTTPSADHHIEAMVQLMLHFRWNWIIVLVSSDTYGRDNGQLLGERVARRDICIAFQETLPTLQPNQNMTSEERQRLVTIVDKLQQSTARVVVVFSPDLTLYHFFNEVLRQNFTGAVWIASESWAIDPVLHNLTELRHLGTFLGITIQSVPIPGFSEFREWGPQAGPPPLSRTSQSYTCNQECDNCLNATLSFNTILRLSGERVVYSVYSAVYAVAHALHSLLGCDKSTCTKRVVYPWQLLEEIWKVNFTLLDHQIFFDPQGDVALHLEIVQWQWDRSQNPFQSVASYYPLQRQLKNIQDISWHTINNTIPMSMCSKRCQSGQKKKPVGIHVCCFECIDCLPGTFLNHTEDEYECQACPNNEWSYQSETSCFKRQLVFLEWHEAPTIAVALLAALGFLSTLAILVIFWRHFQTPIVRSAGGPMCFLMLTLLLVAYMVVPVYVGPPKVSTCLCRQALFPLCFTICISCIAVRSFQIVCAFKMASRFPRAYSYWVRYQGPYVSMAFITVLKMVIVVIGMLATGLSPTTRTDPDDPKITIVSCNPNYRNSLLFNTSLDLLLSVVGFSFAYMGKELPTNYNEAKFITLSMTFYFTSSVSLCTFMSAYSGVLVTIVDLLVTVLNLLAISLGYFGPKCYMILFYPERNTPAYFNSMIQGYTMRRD
# T1 sequence (Q7RTX0 21-852): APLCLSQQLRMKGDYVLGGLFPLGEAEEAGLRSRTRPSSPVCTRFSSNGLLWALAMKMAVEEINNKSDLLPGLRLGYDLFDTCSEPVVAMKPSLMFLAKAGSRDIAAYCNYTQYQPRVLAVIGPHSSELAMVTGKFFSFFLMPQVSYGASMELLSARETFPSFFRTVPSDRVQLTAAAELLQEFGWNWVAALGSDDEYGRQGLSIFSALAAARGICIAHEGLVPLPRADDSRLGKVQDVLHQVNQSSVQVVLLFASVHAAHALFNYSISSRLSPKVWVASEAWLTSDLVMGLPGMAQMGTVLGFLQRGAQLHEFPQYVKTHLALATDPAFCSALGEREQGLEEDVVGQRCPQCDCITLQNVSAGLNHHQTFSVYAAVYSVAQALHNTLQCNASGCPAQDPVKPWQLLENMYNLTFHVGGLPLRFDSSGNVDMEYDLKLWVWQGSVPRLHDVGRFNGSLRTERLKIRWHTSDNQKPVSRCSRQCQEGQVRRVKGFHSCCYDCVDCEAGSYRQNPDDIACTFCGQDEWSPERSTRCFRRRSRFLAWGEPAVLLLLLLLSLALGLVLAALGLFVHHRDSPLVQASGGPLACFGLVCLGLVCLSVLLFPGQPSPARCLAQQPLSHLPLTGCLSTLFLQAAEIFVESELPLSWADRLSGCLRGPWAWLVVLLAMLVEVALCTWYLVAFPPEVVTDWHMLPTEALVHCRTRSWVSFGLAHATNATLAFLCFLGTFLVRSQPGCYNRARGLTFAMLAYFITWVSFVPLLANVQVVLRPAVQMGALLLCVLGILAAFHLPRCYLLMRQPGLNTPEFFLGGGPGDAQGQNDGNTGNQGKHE
# Test: Recombinant human T1R2/T1R3 taste receptor dependent calcium (Fluo-4 AM) cell based assay in stable HEK293 cells
# Method: Fluo-4 AM assay with stable HEK293 cells—Stable cells are maintained in DMEM high-glucose medium (Invitrogen) supplemented with 10% fetal bovine serum (Biochrom) and 4 mM L-glutamine (Invitrogen). Cells for calcium imaging are maintained in DMEM low-glucose medium supplemented with 10% FBS and 1× Glutamax-1 (Invitrogen) for 48 hours before seeding. These stable cells are trypsinized after 48 hours (either with Trypsin-EDTA, Accutase or TrypLE) and seeded onto poly-D-lysine coated 96-well assay plates (Corning) at a density of 45,000 cells/well in DMEM low-glucose medium supplemented with 10% FBS and 1× Glutamax-1.
# After 24 hours, the cells were loaded in 100 μl medium with additional 100 μl of 4 μM Fluo-4 (calcium sensing dye, 2 μM end concentration; Molecular Probes) in Krebs-HEPES (KH)-buffer for 1 hour. The loading reagent is then replaced by 80 μl KH-buffer per well. The Krebs-HEPES-buffer (KH-buffer) is a physiological saline solution including 1.2 mM CaCl2, 4.2 mM NaHCO3 and 10 mM HEPES.
# The dye-loaded stable cells in plates were placed into a fluorescence microtiter plate reader to monitor fluorescence (excitation 488 nm, emission 520 nm) change after the addition of 20 μl KH-buffer supplemented with 5x tastants. For each trace, tastant was added 11.5 seconds after the start of the scan and mixed two times with the buffer, scanning continued for an additional 32 seconds, and data were collected every second.
# Data analysis/Data recording—Calcium mobilization was quantified as the change of peak fluorescence OF) over the baseline level (F). Data were expressed as the mean S.E. of the )F/F value of replicated independent samples. The analysis was done with the software of the microtiter plate reader.
# To analyze the function and activity of aladapcin the heterodimeric T1R2/T1R3 sweet taste receptor has been utilized in a calcium dependent cell based assay. T1R type taste receptors have been transfected with the multicistronic plasmid vector pTrix-Eb-R2R3 in a HEK293 cell line stably expressing the promiscuous mouse G-alpha-15 G-protein. […]
structure (smiles),measurement,setting,value
"O=C(CO)[C@@H](O)[C@H](O)[C@H](O)CO [fructose, reference compound]",activation of the sweet taste receptors by the sweetener alone,"25 mM fructose (4.5 g/l), preexaminations",barely activating
"CC(NC(=O)C(C)NC(=O)C(N)CCCC(N)C(N)=O)C(=O)O (stereo not drawn) [Aladapcin, 2-[2-[(2,6-diamino-6-carbamoyl-hexanoyl)-amino]propanoylamino]propanoic acid]",aladapcin activity on sweet taste receptors (activity as sweet enhancer): amplification of fructose,"in the presence of 25 mM fructose, Fluo4-AM fluorescence increase, HEK293 cells expressing G-alpha-15, human T1R2 and T1R3, FIG. 2",dose dependent
same,sweetener potential (receptor activation by the compound alone),"without the presence of fructose (control measurement), range 0.1-25 μm, FIG. 3",no sweetener potential
